# Laboratory results taken from patent EP0509845A1, “(+) and (-) enantiomers of 5-aliphatic-6-(benzoxazinyl- or benzothiazinyl)-2,3,4,5-tetrahydropyridazin-3-ones” (ORTHO PHARMACEUTICAL CORPORATION, priority 1991, dated 1992).
# Like-named read-outs stand apart in the source and are kept apart here.
# Tests used:
# adult mongrel dogs = assay: Comparative racemate and enantiomer hemodynamic testing in pentobarbital anesthetized open-chest dogs; type: in vivo; details: for In vivo inotropic ED40, i.v.: Table I summary, dose increasing contractile force by 40%; for In vivo inotropic ED40, i.v. / CF ED40 (µg/kg) with 95% F.L.: dogs; for CO Percent Change from Control: cardiac output; for CO Percent Change from Control / CF Percent Change from Control / HR Percent Change from Control / LVEDP Percent Change from Control / MAP Percent Change from Control / dP/dtmax Percent Change from Control / RAP Percent Change from Control / SV Percent Change from Control / SW Percent Change from Control / TPR Percent Change from Control: anesthetized open-chest dogs; for CF Percent Change from Control: contractile force; for CF ED40 (µg/kg) with 95% F.L.: dose causing a 40% increase in contractility above baseline, from dose-response regression lines, i.v. infusion; for HR Percent Change from Control: heart rate; for LVEDP Percent Change from Control: left ventricular end diastolic pressure; for MAP Percent Change from Control: mean blood pressure; for dP/dtmax Percent Change from Control: peak rate of rise in left ventricular pressure; for RAP Percent Change from Control: right atrial pressure; for SV Percent Change from Control: stroke volume (CO/HR x 1000); for SW Percent Change from Control: stroke work; for TPR Percent Change from Control: total peripheral resistance
# Experimental: Adult mongrel dogs weighing approximately l0-l4 kg were anesthetized with sodium pentobarbital (35 mg/kg, i.p.) and artificially respired. A femoral artery was cannulated to measure mean arterial pressure (MAP) and a femoral vein was cannulated for administering compounds. A Millar microtip pressure transducer was placed in the left ventricle via the left carotid artery to measure left ventricular end diastolic pressure (EDP). pressure pulses triggered a cardiotachometer for determination of heart rate (HR) while the left ventricular pressure waveform was differentiated using a Gould differentiating amplifier to yield dP/dtmax, an index of contractility. A right thoractomy was performed at the fourth intercostal space and the pericardial sac was opened. An externally calibrated Walton-Brodie strain gauge arch was sutured to the right ventricular free wall and stretched to produce a baseline force of approximately l00g. Subsequent changes in right ventricular contractile force (CF) were measured from this baseline. A Carolina electromagnetic flow probe was placed on the ascending aorta to estimate cardiac output (CO). A flexible fluid-filled catheter was inserted into the tip of the right atrium to measure right atrial pressure (RAP). Needle electrodes were placed in the appropriate limbs to record a lead II electrocardiogram (ECG). The following formulas were used to calculate derived parameters: Stroke volume (SV) = CO/HR x l000 Stroke work (SW) = ([…]) x SV Total peripheral resistance (TPR) = (MAP-EDP)/CO
# Following surgery and stabilization of hemodynamic parameters, an i.v. infusion of dopamine (l0-l5 µg/kg/min for 3 min) was administered with a Harvard infusion pump to assess responsiveness to positive inotropic stimulation. Baseline hemodynamic values were obtained immediately prior to drug infusion. Responses were continuously monitored on a recorder (Gould 2800) and data collection was facilitated by the use of a Buxco cardiovascular analyzer and data logger.
# In the comparative testing a stock solution of each enantiomer (l mg/ml) was prepared fresh daily and diluted before use. Compounds were dissolved in a small volume of dimethylformamide (DMF) and diluted with saline for a final concentration of l5% DMF. Further dilutions were made with a l5% DMF solution.
# In the comparative testing each compound was administered in cumulative doses to separate dogs. Data were obtained at the end of each dose. (±) Bemoradan and (+) Bemordan were infused at cumulative doses of 5, l5, 35 and 75 µg/kg, administered with a Harvard infusion pump for 5 minutes each at rates of 0.56, l.l, 2.2, and […], respectively. (-) Bemoradan was given at doses of 5, l5 and 35 µg/kg following the same protocol. The high dose of the (-) isomer was not administered as a means of conserving compound.
# Hemodynamic results were expressed as the percent change from pre-drug baseline values and compared using a Dunnett's test with a criterion for significance of p < 0.05. Contractile force ED₄₀ values (i.e., the dose which increased contractile force by 40%) were calculated from dose-response regression lines.
# [1] = test system: human platelet aggregation; assay: Platelet aggregation in vitro in platelet rich plasma; type: cell-based; details: for IC50: human PRP
# Experimental: The racemate and enantiomeric Bemoradan were tested for their effects in vitro on human platelet aggregation. Platelet rich plasma (PRP) was prepared from human donors who were free of aspirin for the preceding week. Venous blood was collected in sodium citrate vacutainer tubes and PRP was obtained by centrifuging the blood at l000 rpm for 5 min. Compounds were dissolved in methanol and added to 480 µl of PRP in a Chrono-log dual channel aggregometer l min prior to aggregant. Serotonin at 5 µM or ADP at 2 µM were the aggregating agents.
# [2] = ADP at 2 µM, read-out: Antiaggregatory IC50 (µM) vs. ADP
# [3] = Serotonin at 5 µM, read-out: Antiaggregatory IC50 (µM) vs. 5-HT
# [4] = Table I summary, ADP at 2 µM as aggregant, read-out: Platelet aggregation (IC50) vs. ADP
# [5] = Table I summary, serotonin at 5 µM as aggregant, read-out: Platelet aggregation (IC50) vs. 5-HT (serotonin)
smiles,measurement,setting,value
"CC1CC(=O)NN=C1c1ccc2c(c1)OCC(=O)N2 (single isomer, unassigned; isomer 6) [(-) isomer, 6-(3,4-dihydro-3-oxo-l,4(2H)-benzoxazin-7-yl)-2,3,4,5-tetrahydro-5-methyl-pyridazin-3-one]","Potency Difference (-vs+), In vivo inotropic ED40, i.v.",adult mongrel dogs; (-) isomer versus (+) isomer,7 x
same,"In vivo inotropic ED40, i.v.",adult mongrel dogs,0.0057 mg/kg
same,CO Percent Change from Control,adult mongrel dogs; cumulative i.v. dose 5 µg/kg,2.9±0.5%
same,CO Percent Change from Control,adult mongrel dogs; cumulative i.v. dose 15 µg/kg,0.8±1.9%
same,CO Percent Change from Control,adult mongrel dogs; cumulative i.v. dose 35 µg/kg,-3.4±2.4%
same,CF Percent Change from Control,adult mongrel dogs; cumulative i.v. dose 5 µg/kg,28.3±4.4%
same,CF Percent Change from Control,adult mongrel dogs; cumulative i.v. dose 15 µg/kg,119.9±18.8%
same,CF Percent Change from Control,adult mongrel dogs; cumulative i.v. dose 35 µg/kg,187.2±28.9%
same,CF ED40 (µg/kg) with 95% F.L.,adult mongrel dogs,5.7 (2.9 - 8.3) µg/kg
same,HR Percent Change from Control,adult mongrel dogs; cumulative i.v. dose 5 µg/kg,-3.1±0.5%
same,HR Percent Change from Control,adult mongrel dogs; cumulative i.v. dose 15 µg/kg,10.5±1.2%
same,HR Percent Change from Control,adult mongrel dogs; cumulative i.v. dose 35 µg/kg,17.1±3.6%
same,LVEDP Percent Change from Control,adult mongrel dogs; cumulative i.v. dose 5 µg/kg,-10.6±4.4%
same,LVEDP Percent Change from Control,adult mongrel dogs; cumulative i.v. dose 15 µg/kg,-20.7±5.1%
same,LVEDP Percent Change from Control,adult mongrel dogs; cumulative i.v. dose 35 µg/kg,-25.1±8.0%
same,MAP Percent Change from Control,adult mongrel dogs; cumulative i.v. dose 5 µg/kg,-7.4±3.4%
same,MAP Percent Change from Control,adult mongrel dogs; cumulative i.v. dose 15 µg/kg,-12.8±4.5%
same,MAP Percent Change from Control,adult mongrel dogs; cumulative i.v. dose 35 µg/kg,-18.7±4.3%
same,dP/dtmax Percent Change from Control,adult mongrel dogs; cumulative i.v. dose 5 µg/kg,11.7±5.6%
same,dP/dtmax Percent Change from Control,adult mongrel dogs; cumulative i.v. dose 15 µg/kg,41.6±12.3%
same,dP/dtmax Percent Change from Control,adult mongrel dogs; cumulative i.v. dose 35 µg/kg,58.0±14.5%
same,RAP Percent Change from Control,adult mongrel dogs; cumulative i.v. dose 5 µg/kg,3.8±11.4%
same,RAP Percent Change from Control,adult mongrel dogs; cumulative i.v. dose 15 µg/kg,-0.9±16.4%
same,RAP Percent Change from Control,adult mongrel dogs; cumulative i.v. dose 35 µg/kg,-1.4±16.0%
same,SV Percent Change from Control,adult mongrel dogs; cumulative i.v. dose 5 µg/kg,0.06±0.9%
same,SV Percent Change from Control,adult mongrel dogs; cumulative i.v. dose 15 µg/kg,-8.4±1.8%
same,SV Percent Change from Control,adult mongrel dogs; cumulative i.v. dose 35 µg/kg,-15.2±4.0%
same,SW Percent Change from Control,adult mongrel dogs; cumulative i.v. dose 5 µg/kg,-7.8±4.2%
same,SW Percent Change from Control,adult mongrel dogs; cumulative i.v. dose 15 µg/kg,-19.8±6.3%
same,SW Percent Change from Control,adult mongrel dogs; cumulative i.v. dose 35 µg/kg,-29.7±7.7%
same,TPR Percent Change from Control,adult mongrel dogs; cumulative i.v. dose 5 µg/kg,-10.2±5.2%
same,TPR Percent Change from Control,adult mongrel dogs; cumulative i.v. dose 15 µg/kg,-12.8±7.5%
same,TPR Percent Change from Control,adult mongrel dogs; cumulative i.v. dose 35 µg/kg,-14.9±5.1%
same,"Potency Difference (-vs+), Platelet aggregation (IC50) vs. 5-HT (serotonin)",[1]; (-) isomer versus (+) isomer,16x
same,"Potency Difference (-vs+), Platelet aggregation (IC50) vs. ADP",[1]; (-) isomer versus (+) isomer,12x
same,IC50,[1]; [2],0.32 µM
same,IC50,[1]; [3],0.5 µM
same,IC50,[1]; [4],0.32 µM
same,IC50,[1]; [5],0.5 µM
"CC1CC(=O)NN=C1c1ccc2c(c1)OCC(=O)N2 (single isomer, unassigned; isomer 6) [(+) isomer, 6-(3,4-dihydro-3-oxo-l,4(2H)-benzoxazin-7-yl)-2,3,4,5-tetrahydro-5-methyl-pyridazin-3-one]","In vivo inotropic ED40, i.v.",adult mongrel dogs,0.0423 mg/kg
same,CO Percent Change from Control,adult mongrel dogs; cumulative i.v. dose 5 µg/kg,2.0±1.4%
same,CO Percent Change from Control,adult mongrel dogs; cumulative i.v. dose 15 µg/kg,4.8±2.8%
same,CO Percent Change from Control,adult mongrel dogs; cumulative i.v. dose 35 µg/kg,10.6±5.9%
same,CO Percent Change from Control,adult mongrel dogs; cumulative i.v. dose 75 µg/kg,13.4±8.5%
same,CF Percent Change from Control,adult mongrel dogs; cumulative i.v. dose 5 µg/kg,4.3±2.7%
same,CF Percent Change from Control,adult mongrel dogs; cumulative i.v. dose 15 µg/kg,11.8±3.3%
same,CF Percent Change from Control,adult mongrel dogs; cumulative i.v. dose 35 µg/kg,29.5±5.2%
same,CF Percent Change from Control,adult mongrel dogs; cumulative i.v. dose 75 µg/kg,59.5±7.2%
same,CF ED40 (µg/kg) with 95% F.L.,adult mongrel dogs,42.3 (33.5 - 56.7) µg/kg
same,HR Percent Change from Control,adult mongrel dogs; cumulative i.v. dose 5 µg/kg,-0.7±0.8%
same,HR Percent Change from Control,adult mongrel dogs; cumulative i.v. dose 15 µg/kg,1.2±0.8%
same,HR Percent Change from Control,adult mongrel dogs; cumulative i.v. dose 35 µg/kg,4.5±1.0%
same,HR Percent Change from Control,adult mongrel dogs; cumulative i.v. dose 75 µg/kg,10.6±3.7%
same,LVEDP Percent Change from Control,adult mongrel dogs; cumulative i.v. dose 5 µg/kg,-3.4±3.6%
same,LVEDP Percent Change from Control,adult mongrel dogs; cumulative i.v. dose 15 µg/kg,-4.9±4.8%
same,LVEDP Percent Change from Control,adult mongrel dogs; cumulative i.v. dose 35 µg/kg,-7.4±5.7%
same,LVEDP Percent Change from Control,adult mongrel dogs; cumulative i.v. dose 75 µg/kg,-11.2±7.1%
same,MAP Percent Change from Control,adult mongrel dogs; cumulative i.v. dose 5 µg/kg,-1.4±1.1%
same,MAP Percent Change from Control,adult mongrel dogs; cumulative i.v. dose 15 µg/kg,-1.8±1.7%
same,MAP Percent Change from Control,adult mongrel dogs; cumulative i.v. dose 35 µg/kg,-2.2±2.2%
same,MAP Percent Change from Control,adult mongrel dogs; cumulative i.v. dose 75 µg/kg,-3.8±2.8%
same,dP/dtmax Percent Change from Control,adult mongrel dogs; cumulative i.v. dose 5 µg/kg,2.8±1.0%
same,dP/dtmax Percent Change from Control,adult mongrel dogs; cumulative i.v. dose 15 µg/kg,7.3±1.8%
same,dP/dtmax Percent Change from Control,adult mongrel dogs; cumulative i.v. dose 35 µg/kg,18.9±3.6%
same,dP/dtmax Percent Change from Control,adult mongrel dogs; cumulative i.v. dose 75 µg/kg,37.0±6.4%
same,RAP Percent Change from Control,adult mongrel dogs; cumulative i.v. dose 5 µg/kg,-10.6±8.5%
same,RAP Percent Change from Control,adult mongrel dogs; cumulative i.v. dose 15 µg/kg,-5.8±9.7%
same,RAP Percent Change from Control,adult mongrel dogs; cumulative i.v. dose 35 µg/kg,-4.2±8.4%
same,RAP Percent Change from Control,adult mongrel dogs; cumulative i.v. dose 75 µg/kg,-21.7±13.3%
same,SV Percent Change from Control,adult mongrel dogs; cumulative i.v. dose 5 µg/kg,2.5±0.7%
same,SV Percent Change from Control,adult mongrel dogs; cumulative i.v. dose 15 µg/kg,4.0±2.4%
same,SV Percent Change from Control,adult mongrel dogs; cumulative i.v. dose 35 µg/kg,6.8±6.1%
same,SV Percent Change from Control,adult mongrel dogs; cumulative i.v. dose 75 µg/kg,6.1±9.1%
same,SW Percent Change from Control,adult mongrel dogs; cumulative i.v. dose 5 µg/kg,0.7±1.3%
same,SW Percent Change from Control,adult mongrel dogs; cumulative i.v. dose 15 µg/kg,1.7±3.5%
same,SW Percent Change from Control,adult mongrel dogs; cumulative i.v. dose 35 µg/kg,4.4±7.3%
same,SW Percent Change from Control,adult mongrel dogs; cumulative i.v. dose 75 µg/kg,1.9±9.9%
same,TPR Percent Change from Control,adult mongrel dogs; cumulative i.v. dose 5 µg/kg,-3.6±0.7%
same,TPR Percent Change from Control,adult mongrel dogs; cumulative i.v. dose 15 µg/kg,-6.6±1.7%
same,TPR Percent Change from Control,adult mongrel dogs; cumulative i.v. dose 35 µg/kg,-11.3±3.7%
same,TPR Percent Change from Control,adult mongrel dogs; cumulative i.v. dose 75 µg/kg,-14.4±5.3%
same,IC50,[1]; [2],3.8 µM
same,IC50,[1]; [3],8 µM
same,IC50,[1]; [4],3.8 µM
same,IC50,[1]; [5],8 µM
